# Patent publication US11001595B2, “Pyrimidine compounds and pyrimido indole compounds and methods of use” (Duquesne University of the Holy Spirit, priority 2014, dated 2021)
# Like-named read-outs stand apart in the source and are kept apart here.
# Assays:
# [1] = system: SK-OV-3 MDR-1-6/6 cells (P-gp expressing); conditions: cited from earlier work
# HeLa cells [2] = conditions: Table 3, parental line; cited from earlier work
# SK-OV-3 cells [3] = conditions: Table 2, parental line; cited from earlier work
# [4] = system: HeLa WTβ-III cells (β-III tubulin expressing); conditions: cited from earlier work
# [5] = system: NCl/ADR-RES cells (Pgp overexpressing); test: Antiproliferative effect, Pgp overexpressing NCI/ADR-RES, SRB assay (Section E); conditions: for Rr: IC50 of Pgp overexpressing line divided by IC50 of parental OVCAR-8; for IC50: read-out: IC50 ± SD Pgp Overexpressing NCl/ADR-RES
# [6] = system: βIII Overexpressing HeLa cells; test: Antiproliferative effect, βIII overexpressing HeLa, SRB assay (Section E); assay type: cell-based, human; conditions: for Rr: IC50 of β-III overexpressing HeLa divided by IC50 of parental HeLa; for IC50: SRB assay, read-out: IC50 ± SD βIII Overexpressing HeLa
# OVCAR-8 cells = test: Antiproliferative effect, parental OVCAR-8, SRB assay (Section E); assay type: cell-based, human
# Wild type HeLa cells = test: Antiproliferative effect, wild type HeLa, SRB assay (Section E); assay type: cell-based, human; conditions: read-out: IC50 ± SD Wild type HeLa
# [7] = system: microtubules in A-10 cells; test: Microtubule depolymerization in A-10 cells (Section A); assay type: cell-based; conditions: Table 4, unit of column head (CA-4 row)
# MDA-MB-435 cells = test: Inhibition of cell proliferation, MDA-MB-435 (Section A); assay type: cell-based, human; conditions: Table 4; read-out: IC50 ± SD in MDA-MB-435 Cells
# [8] = system: HeLa WTβ-III cells (β-III tubulin expressing); test: Effect of β-III tubulin on drug sensitivity, HeLa WT β-III (Section A); assay type: cell-based; conditions: for Rr: Table 6, relative resistance HeLa WTβ-III vs HeLa
# HeLa cells [9] = test: Drug sensitivity in HeLa cells (Section A); assay type: cell-based; conditions: Homo sapiens, Table 6, parental line, read-out: IC50 ± SD in HeLa
# [10] = system: SK-OV-3 MDR-1-6/6 cells (P-gp expressing); conditions: Table 5, relative resistance SK-OV-3 MDR-1-6/6 vs SK-OV-3
# SK-OV-3 cells [11] = test: Drug sensitivity in parental SK-OV-3 cells (Section A); assay type: cell-based; conditions: Homo sapiens, Table 5, parental line
# recombinant pjDHFR = recombinant pjDHFR (Pneumocystis jirovecii (Human pneumocystis pneumonia agent), UniProt Q9UUP5); test: Inhibition of recombinant pjDHFR; assay type: biochemical; conditions: 37° C., 18 μM dihydrofolic acid
smiles,measurement,setting,value
"COc1ccc(/C=C\c2cc(OC)c(OC)c(OC)c2)cc1OP(=O)(O)O [CA4P, combretastatin A-4 phosphate]",Rr,"[1]; Table 2, relative resistance SK-OV-3 MDR-1-6/6 vs SK-OV-3",1.5
same,IC50,"[1]; read-out: SK-OV-3 MDR-1-6/6 IC50, Table 2, P-gp expressing line",6.6 ± 1.3 nM
same,IC50,HeLa cells [2],4.7 ± 0.2 nM
same,IC50,SK-OV-3 cells [3],4.5 ± 0.2 nM
same,Rr,"[4]; Table 3, relative resistance WT β-III vs HeLa",1.2
same,IC50,"[4]; Table 3, β-III tubulin expressing line, read-out: WT β-III IC50",5.7 ± 0.4 nM
"COc1ccc(/C=C\c2cc(OC)c(OC)c(OC)c2)cc1O [CA-4, combretastatin A-4]",Rr,[5],1.5
same,IC50,[5]; SRB assay,9 ± 2 nM
same,Rr,[6],1.38
same,IC50,[6],2.5 ± 0.7 nM
same,IC50,OVCAR-8 cells; read-out: IC50 ± SD Parental OVCAR-8,6 ± 0.7 nM
same,IC50,Wild type HeLa cells,1.8 ± 0.4 nM
same,EC50,[7],9.8 nM
same,IC50,MDA-MB-435 cells,4.4 ± 0.46 nM
same,Rr,[8],1
CC(=O)O[C@H]1C(=O)[C@@]2(C)[C@H]([C@H](OC(=O)c3ccccc3)[C@]3(O)C[C@H](OC(=O)[C@H](O)[C@@H](NC(=O)c4ccccc4)c4ccccc4)C(C)=C1C3(C)C)[C@]1(OC(C)=O)CO[C@@H]1C[C@@H]2O [Paclitaxel],IC50,"[5]; Homo sapiens, NCI/ADR-RES",5000 nM
same,Rr,[5],500
same,IC50,"[6]; Homo sapiens, HeLa",16 ± 1 nM
same,Rr,[6],3.01
same,IC50,"OVCAR-8 cells; Homo sapiens, OVCAR-8, read-out: IC50 ± SD Parental OVCAR-8",10 nM
same,IC50,"Wild type HeLa cells; Homo sapiens, HeLa",5.3 ± 2 nM
same,IC50,HeLa cells [9],2.8 ± 0.36 nM
same,Rr,[10],240
same,IC50,"[8]; Homo sapiens, HeLa, Table 6, β-III tubulin expressing line, read-out: IC50 ± SD in HeLa WTβ-III",24 ± 3 nM
same,Rr,[8],8.6
same,IC50,SK-OV-3 cells [11],5 ± 0.6 nM
"COc1cc(NCc2ccc3nc(N)nc(N)c3c2C)cc(OC)c1OC [TMQ, Trimetrexate]",IC50,recombinant pjDHFR,2.1 nM
